Experimental data taken from patent publication US8686050B2, “Diglycidic ether derivative therapeutics and methods for their use” (British Columbia Cancer Agency Branch, priority 2008, dated 2014).
Entries after “also recorded” stand apart in the source; their conditions may differ. Counter-ions that a name gives are not always drawn.

Columns and labels:
AR = molecular target: T1, AR (Homo sapiens, UniProt P10275, T878A); experiment: Western blot of AR protein in LNCaP whole cell lysates; type: cell-based; parameters: LNCaP cells express endogenous AR and secrete prostate-specific antigen (PSA); endogenous in cells; host or cells: LNCaP
T1 sequence (P10275 1-920 T878A): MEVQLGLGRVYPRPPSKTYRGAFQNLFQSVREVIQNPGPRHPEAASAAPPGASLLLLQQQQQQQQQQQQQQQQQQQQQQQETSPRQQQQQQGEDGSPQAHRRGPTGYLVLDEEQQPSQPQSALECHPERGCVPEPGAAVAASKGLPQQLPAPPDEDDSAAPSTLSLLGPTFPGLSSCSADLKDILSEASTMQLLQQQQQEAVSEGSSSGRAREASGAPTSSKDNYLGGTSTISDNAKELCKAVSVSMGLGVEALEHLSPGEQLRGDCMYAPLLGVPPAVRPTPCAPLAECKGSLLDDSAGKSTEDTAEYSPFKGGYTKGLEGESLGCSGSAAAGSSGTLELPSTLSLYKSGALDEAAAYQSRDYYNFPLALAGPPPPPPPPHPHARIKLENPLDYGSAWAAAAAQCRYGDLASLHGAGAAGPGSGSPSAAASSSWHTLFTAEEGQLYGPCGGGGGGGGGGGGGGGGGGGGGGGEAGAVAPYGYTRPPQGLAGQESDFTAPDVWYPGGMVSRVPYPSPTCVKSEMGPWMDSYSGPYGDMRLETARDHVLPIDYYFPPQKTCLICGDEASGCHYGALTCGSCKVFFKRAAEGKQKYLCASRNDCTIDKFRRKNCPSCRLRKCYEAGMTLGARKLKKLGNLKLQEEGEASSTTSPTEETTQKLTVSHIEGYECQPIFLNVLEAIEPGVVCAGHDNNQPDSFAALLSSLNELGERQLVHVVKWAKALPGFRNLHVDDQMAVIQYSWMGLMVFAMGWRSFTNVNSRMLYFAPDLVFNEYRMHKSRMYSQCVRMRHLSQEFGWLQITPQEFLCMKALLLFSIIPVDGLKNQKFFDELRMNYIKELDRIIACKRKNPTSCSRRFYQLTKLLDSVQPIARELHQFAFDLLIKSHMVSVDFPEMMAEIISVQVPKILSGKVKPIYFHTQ

VEGF = VEGF staining of harvested LNCaP xenografts; type: in vivo, mice; conditions: harvested at day 25 from castrated hosts
Description: Angiogenesis in prostate cancer is predominantly dependent upon vascular endothelial growth factor (VEGF). Testosterone is a potent inducer of VEGF in the prostate (Häggström et al 1999 J Urol. 161, 1620-1625) and re-expression of VEGF in androgen independent tumours is consistent with the re-expression of androgen-regulated genes (Gregory et al 1998 Cancer Res. 58, 5718-5724). Expression of VEGF is associated with androgen independence (Mitsiades et al 2001 Expert Opin Investig Drugs. 10, 1099-1115) and aggressive metastatic disease (Harper et al 1998 J Pathol. 186, 169-177; Balbay et al 1999 Clin Cancer Res. 5, 783-789; Melnyk et al 1999 J Urol. 161, 960-963).

PSA mRNA = experiment: Endogenous PSA mRNA in LNCaP cells by QRT-PCR; type: cell-based, human; conditions: 185-9-2 5 μg/ml, R1881 1 nM 16 hours, normalized to GAPDH mRNA
Experimental: Induction of PSA mRNA by both R1881 (ligand-dependent) and FSK (ligand-independent) in LNCaP cells is dependent upon AR (Sadar, M. D., J. Biol. Chem. 274, 7777-7783 (1999); Wang G, Jones S J, Marra M A, Sadar M D, Oncogene 2006; 25:7311-23.). To test whether the compounds have an effect on endogenous gene expression, the levels of PSA mRNA in LNCaP cells exposed to R1881 were measured. LNCaP cells (in serum-free and phenol-red free media) were incubated with compounds for 1 hour before the addition of R1881 (1 nM) for an additional 16 hours before harvesting and isolating total RNA. Levels of mRNA were measured using QPCR. Levels of PSA mRNA were normalized to levels of GAPDH mRNA.

[1] = molecular target: T2, glucocorticoid receptor (GR) (Homo sapiens, UniProt P04150); experiment: GRE-luciferase reporter, steroid receptor specificity; type: cell-based; conditions: LNCaP cells transfected with GR, steroid 10 nM; 185-9-2 5 μg/ml
T2 construct: Cells were co-transfected with expression plasmids for full-length hGR, PRβ and the relative reporter; expressed in transfected cells; host or cells: LNCaP
T2 sequence (P04150 1-777): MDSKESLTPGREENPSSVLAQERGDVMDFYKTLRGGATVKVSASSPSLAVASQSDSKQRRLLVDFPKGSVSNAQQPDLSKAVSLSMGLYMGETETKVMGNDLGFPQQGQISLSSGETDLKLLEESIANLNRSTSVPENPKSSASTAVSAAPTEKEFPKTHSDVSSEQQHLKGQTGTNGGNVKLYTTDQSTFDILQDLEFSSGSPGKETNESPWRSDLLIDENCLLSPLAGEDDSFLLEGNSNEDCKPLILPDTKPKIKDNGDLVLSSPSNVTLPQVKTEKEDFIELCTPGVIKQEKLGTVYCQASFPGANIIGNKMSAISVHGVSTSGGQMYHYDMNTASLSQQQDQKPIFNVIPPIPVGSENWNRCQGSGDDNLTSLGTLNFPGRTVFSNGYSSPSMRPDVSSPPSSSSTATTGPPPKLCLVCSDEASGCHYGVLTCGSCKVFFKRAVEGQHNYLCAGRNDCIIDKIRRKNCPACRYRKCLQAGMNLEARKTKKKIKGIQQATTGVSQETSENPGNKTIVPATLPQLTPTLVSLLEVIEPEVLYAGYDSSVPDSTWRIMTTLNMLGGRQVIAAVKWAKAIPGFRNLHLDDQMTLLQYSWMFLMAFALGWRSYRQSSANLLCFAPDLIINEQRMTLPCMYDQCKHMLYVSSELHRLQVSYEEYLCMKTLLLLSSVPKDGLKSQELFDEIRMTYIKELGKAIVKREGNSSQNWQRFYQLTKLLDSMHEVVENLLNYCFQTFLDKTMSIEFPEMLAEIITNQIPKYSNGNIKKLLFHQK
Experimental: Sequence similarities of amino acids in the AR with related human steroid receptors PR and glucocorticoid receptor (GR) are significant in some domains such as the DBD. The AR NTD shares less than 15% homology with the PR and GR, but these receptors interact with some of the same proteins (eg., SRC-1 and CBP). […] Cells were co-transfected with expression plasmids for full-length hGR, PRβ and the relative reporter (i.e., pGR-Luc or PRE-E1b-Luc reporters). Cells were then treated with ethanol vehicle, dexamethasone (GR), 4-pregnene-3,20 dione (progesterone) (PR) followed by measurement of luciferase activity. […] Some antiandrogens currently used in the clinic have progestational and glucocorticoidal activities. In adult males, the role of the PR activity is unclear.

## CC(C)(c1ccc(OCC(O)CO)cc1)c1ccc(OCC(O)CCl)cc1 (stereo not drawn) [185-9-2, BADGE.HCL.H2O]
AR; LNCaP cells treated 3 or 16 hours
  levels of AR protein in whole cell extracts: does NOT decrease levels of AR protein; also recorded: not decreased
AR; LNCaP cells, 48 hrs, presence or absence of DHT
  levels of AR protein, long term incubation: did not reduce levels of AR protein
VEGF
  VEGF protein in LNCaP xenografts: decreased levels of vascular endothelial growth factor (VEGF) protein
VEGF; listed as PNG01-185-017-9-2
  VEGF protein in LNCaP xenografts: inhibited the expression of VEGF
PSA mRNA
  endogenous PSA mRNA induction by R1881: to almost baseline levels; also recorded: inhibited endogenous PSA gene expression
[1]
  GRE-luciferase activity in response to ligand: did NOT inhibit; also recorded: does NOT inhibit
